Literature values, collected in patent US20150209327A1, “METHODS FOR THE TREATMENT OF OBESITY USING APREMILAST” (Celgene Corporation, priority 2014, published 2015).

Settings: treatment of COPD; cited from earlier work

SMILES: O=C(Nc1c(Cl)cncc1Cl)c1ccc(OC(F)F)c(OCC2CC2)c1 [roflumilast]
- weight change as a side effect: Weight decrease was observed
